Experimental data taken from patent US20240368115A1, “REGULATOR CONTAINING TRICYCLIC DERIVATIVE, PREPARATION METHOD THEREFOR AND APPLICATION THEREOF” (SHUJING BIOPHARMA CO., LTD, priority 2021, published 2024).

How the values were obtained:
5-HT2B receptor = 5-HT2B receptor (Homo sapiens, UniProt P41595); assay: Calcium flux test for 5-HT2B receptor; type: cell-based; settings: HEK293 cell strain stably expressing 5-HT2B receptor
Text: • Fluo-4 calcium flux detection kit was purchased from Invitrogen; an HEK293 cell strain stably expressing 5-HT2B receptor was purchased from GenScript; serotonin was purchased from Sigma; methiothepin was purchased from Targetmol; polylysine-coated 384-well plates and 384-well compound plates were purchased from Greiner Bio-One. Molecular Device FLIPR, Agilent Bravo liquid workstation, and Countstar BioTech cell counter.
• (1) The cultured cells were digested with trypsin, and the cell suspension was taken after the digestion was terminated. The cryopreserved cells were rapidly thawed in a water bath at 37° C., and the cells were resuspended in a plating medium. […] The pellet was resuspended in an appropriate amount of plating medium, 20 μL of cell suspension was counted using a cell counter, and the cell density was diluted to 1×10^6 cells/mL. • (2) 20 μL of cell suspension was added to a polylysine-coated 384-well plate (2×10^4 cells/well). • (3) The cell plate was incubated in a 37° C./5% CO2 incubator for 16-20 h.
• (1) The cell plate was taken out from the incubator and centrifuged at 100×g to remove the medium. […] The cell plate and agonist positive compound plate were placed into the FLIPR instrument, the detection program was run, 10 μL of the diluted compound was transferred from the agonist compound plate to the cell plate, and the fluorescence signal was read. […]

[1] = Pharmacokinetic test in mice; type: in vivo; settings: male, ICR, mouse, plasma, po, 5 mg/kg, oral intragastric, single dose 5 mg/kg
Experimental: Male ICR mice were administered orally intragastrically, the plasma concentrations of the compounds of the present invention were measured in the mice, the PK parameters were calculated, and the pharmacokinetic evaluation was performed on the compounds of the present invention.
• (1) Test samples: the compounds of the examples of the present invention, self-made. • (2) Test animals: ICR mice, SPF grade, male, Xuzhou Medical University. • (3) Main test instruments:
Drug preparation: according to the weight of the weighed drug, the preparation volume was calculated. 5% of DMSO was added firstly. After the drug was fully dissolved, 95% of 20% aqueous PB-cyclodextrin solution was then added, and the mixture was mixed well for later use.
Administration route: oral intragastric administration. Frequency and duration of administration: single administration.
ICR mice were stratified according to body weight and then randomly divided into groups of 9 mice each, and the mice were fasted overnight prior to the test. The mice were separately administered orally intragastrically. 50 μL of blood was collected from the fundus vein of the mouse at 0 h, 0.083 h, 0.25 h, 0.5 h, 1 h, 2 h, 4 h, 8 h, 12 h, and 24 h (3 time points for each mouse) to a sample tube containing heparin sodium as an anticoagulant, and the tube was placed in wet ice and centrifuged at 4000 r·min^−1 for 10 min. The plasma was separated, and cryopreserved in a refrigerator at −80° C. for testing.
The concentrations of plasma samples were measured by high performance liquid chromatography-tandem mass spectrometry (LC-MS/MS). The retention times of the compounds and internal standard, chromatogram acquisitions, and integrals of chromatograms were processed using the software Analyst (AB SCIEX), and the data statistics were processed using the software Watson LIMS (Thermo Fisher Scientific) or Analyst (AB SCIEX). The concentration of plasma was processed using a non-compartmental model of the pharmacokinetic software WinNonlin™ Version 6.3 (Pharsight, Mountain View, CA), and pharmacokinetic parameters were calculated by a linear log-trapezoidal method.

Chain of 5-HT2B receptor (P41595 whole entry): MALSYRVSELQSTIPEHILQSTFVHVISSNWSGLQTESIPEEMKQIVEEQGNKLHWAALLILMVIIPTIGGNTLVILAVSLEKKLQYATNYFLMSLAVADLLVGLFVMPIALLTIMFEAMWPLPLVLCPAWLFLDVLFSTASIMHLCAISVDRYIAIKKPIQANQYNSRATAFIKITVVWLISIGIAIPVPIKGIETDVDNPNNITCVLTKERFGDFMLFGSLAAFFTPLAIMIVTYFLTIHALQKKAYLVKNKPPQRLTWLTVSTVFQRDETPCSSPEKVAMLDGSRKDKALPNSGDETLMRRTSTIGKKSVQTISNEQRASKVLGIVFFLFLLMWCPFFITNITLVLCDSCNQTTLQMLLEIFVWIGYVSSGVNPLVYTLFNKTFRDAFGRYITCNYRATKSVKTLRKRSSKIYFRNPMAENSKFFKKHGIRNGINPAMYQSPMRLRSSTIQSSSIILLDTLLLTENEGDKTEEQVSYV

For `O=C1Nc2cc(OCCCCN3CCN(c4cccc(Cl)c4Cl)CC3)ccc2C2CC12` (centres unmarked) [Example 1, 5-(4-(4-(2,3-Dichlorophenyl)piperazin-1-yl)butoxy)-3,7b-dihydro-1H-cyclopropa[c]quinolin-2(1aH)-one], the IC50 (5-HT2B receptor; calcium flux, antagonism of serotonin) was 658 nM, the “5-HT2B Max Inh %” value (5-HT2B receptor; positive control methiothepin 10^−5 M) was 105.8% and the half-life [1] was 10.8 h. It also gave an AUC(0-inf) ([1]; read-out: AUC(0-inf)) of 7160 ng·h/mL and a Cmax ([1]; read-out: Cmax) of 511 ng/mL.
